The values below come from patent publication US20250171434A1, “SEC61 INHIBITORS AND USE THEREOF” (KEZAR LIFE SCIENCES, INC., priority 2022, published 2025).

Bounds are passed on as bounds.

Data set [1] concerns PD1-ss+10aa/Gaussia Luciferase. Kind of data set: Dox-Induced PD1-ss-Gluc Assay. The settings on record: Flp-In 293 T-REx cells, 24 hours with doxycycline; Table 1; read-out: 24 hr Dox Inducible PD1ssGluc 293FRT/TO: Mean IC50. The format is cell-based. Summed up: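 Compounds were added in DMSO/media with doxycycline and incubated at 37 °C, 5% CO2, on 293 T-REx cells plated one day earlier. These cells stably express, under tetracycline-regulated control, a Gaussia luciferase fused to the PD1 signal peptide plus 10 residues. Structures drawn without stereochemistry were tested as stereoisomer mixtures.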

The test system of data set [2] is IL-2-FL/Gaussia Luciferase. Kind of data set: Dox Inducible IL2-FL-Gluc Assay. The format is cell-based. The settings on record: Table 1; for IC50: Flp-In 293 T-REx cells, 24 hours with doxycycline, read-out: 24 hr Dox Inducible IL2FLGluc 293FRT/TO: Mean IC50; for 24 hr Dox Inducible IL2FLGluc 293FRT/TO: IL2/PD1: ratio of IC50s IL2/PD1. Summed up: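 Stable Flp-In 293 T-REx line, Tet-regulated IL-2 (aa 1-153)–Gaussia luciferase fusion; hygromycin/blasticidin selected. Plated day -1; compound + doxycycline added next day; 37° C, 5% CO2.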

The subject of data set [3] is multiple myeloma cell line U266B1. Kind of data set: U266 Cell Viability Assay. The format is cell-based. As to conditions: Homo sapiens, U-266; U266B1 cells, 48 hours, Celltiter-Glo; read-out: 48 hr U266 Viability Celltiter-Glo: Mean EC50. In short, it runs like this:
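Luminescent ATP read-out (CellTiter-Glo) after 48 h compound exposure at 37° C., 5% CO2; cells maintained in RPMI 1640/10% FBS/2 mM glutamine/pen-strep, compounds diluted in DMSO/media.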

Data set [4] in a line: Liver Microsome Stability Assay, rat. The settings on record: rat liver microsomes 1.0 mg/mL, 1.0 uM compound, 37° C., 1 mM NADPH. Type of data set: in vitro ADME. Summed up: (§1)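 1.0 uM cpd, 0.4% DMSO, 1.0 mg/mL microsomes, 0.1 M KPi, 37° C, ±1 mM NADPH; quench 0 and 30 min.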
Data set [5] deals with IL6R-ss+10aa/Gaussia Luciferase. Kind of data set: Dox-induced IL-6R-ss-Gluc Assay. The format is cell-based. As to conditions: Table 1; for IC50: Flp-In 293 T-REx cells, 24 hours with doxycycline, read-out: 24hr Dox Inducible IL6R(ss + 10)Gluc 293FRT/TO: Mean IC50; for 24hr Dox Inducible IL6R(ss + 10)Gluc 293FRT/TO: IL6R/PD1: ratio of IC50s IL6R/PD1. In short, it runs like this:
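Flp-In 293 T-REx cells stably carrying a doxycycline-inducible IL6R signal sequence+10 aa fused to Gaussia luciferase. Cells plated the day before; compound dilutions added in DMSO/media containing doxycycline and incubated at 37 °C, 5% CO2.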

In data set [6] the test system is multiple myeloma cell line NCI-H929. Kind of data set: H929 Cell Viability Assay. The format is cell-based, human. The settings on record: Homo sapiens; NCI-H929 cells, 48 hours, Celltiter-Glo; read-out: 48 hr H929 Viability Celltiter-Glo: Mean EC50. In short, it runs like this:
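Cells in RPMI 1640/10% FBS; compound dilutions in DMSO/media; 48 h, 37° C, 5% CO2; CellTiter-Glo luciferase readout for viability.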
In general terms: ATP-based viability assays read luminescence as a measure of living cells.

The nature of data set [7]: Liver Microsome Stability Assay, monkey. Type of data set: in vitro ADME. As to conditions: monkey liver microsomes 1.0 mg/mL, 1.0 uM compound, 37° C., 1 mM NADPH. Summed up: as §1
(Microsomes from liver hold many membrane-bound enzymes, among them those of drug oxidation.)

A short description of data set [8]: Liver Microsome Stability Assay, human. As to conditions: human liver microsomes 1.0 mg/mL, 1.0 uM compound, 37° C., 1 mM NADPH. Type of data set: in vitro ADME. In short, it runs like this: as §1
Data set [9] in a line: Liver Microsome Stability Assay, mouse. Type of data set: in vitro ADME. As to conditions: mouse liver microsomes 1.0 mg/mL, 1.0 uM compound, 37° C., 1 mM NADPH. In short, it runs like this: as §1
In the next data set the test system is CD47(ss + 10)Gluc. Kind of data set: Dox-Induced CD47-ss-Gluc Assay. The format is cell-based. As to conditions: Flp-In 293 T-REx cells, 24 hours with doxycycline; Table 1; read-out: 24 hr Dox Inducible CD47(ss + 10)Gluc 293FRT/TO: Mean IC50.

What is called EC50 is the concentration giving half of the maximal effect. On to `O=C(Nc1nc(/C=C/C2CCOC2)cs1)c1cccn1Cc1ccnc(F)c1` (stereo not shown) [Compound B22, (E)-1-((2-fluoropyridin-4-yl)methyl)-N-(4-(2-(tetrahydrofuran-3-yl)vinyl)thiazol-2-yl)-1H-pyrrole-2-carboxamide], for which the IC50 (in [1]; in [2]; in data set [5]; with CD47(ss + 10)Gluc) was > 25 µM in each case. Moreover, the concentration giving a half-maximal response (EC50) in [3] and in data set [6] was > 25 µM each time. In addition, the “Liver Microsome Stability (Multiple Species): Rat - % Remaining after 30 min w/ NADPH (%)” value in data set [4] is recorded as 1%. In data set [7], the “Liver Microsome Stability (Multiple Species): Monkey - % Remaining after 30 min w/ NADPH (%)” value was <1%. The “Liver Microsome Stability (Multiple Species): Human - % Remaining after 30 min w/ NADPH (%)” value in data set [8] is on record as 9%. Moreover, in data set [9], the “Liver Microsome Stability (Multiple Species): Mouse - % Remaining after 30 min w/ NADPH (%)” value came to 41%.

Take `N[C@H]1CC[C@H](/C=C/c2csc(NC(=O)c3cccn3Cc3ccncc3)n2)CC1` [Compound B18, N-(4-((E)-2-((1r,4r)-4-aminocyclohexyl)vinyl)thiazol-2-yl)-1-(pyridin-4-ylmethyl)-1H-pyrrole-2-carboxamide]: the IC50 was 11.3 µM in data set [1], > 25 µM in [2], 9.91 µM in data set [5] and > 25 µM in the data set on CD47(ss + 10)Gluc. In addition, the “24 hr Dox Inducible IL2FLGluc 293FRT/TO: IL2/PD1” value in [2] is given as >2.2. Besides, the EC50 in [3] and in [6] was > 25 µM each time. In addition, the “Liver Microsome Stability (Multiple Species): Rat - % Remaining after 30 min w/ NADPH (%)” value in [4] is on record as 6%. For the same molecule, the “24hr Dox Inducible IL6R(ss + 10)Gluc 293FRT/TO: IL6R/PD1” value in data set [5] is on record as 1. Also, in [7], the “Liver Microsome Stability (Multiple Species): Monkey - % Remaining after 30 min w/ NADPH (%)” value is listed as <1%. In addition, the “Liver Microsome Stability (Multiple Species): Human - % Remaining after 30 min w/ NADPH (%)” value in [8] is given as <1%. For the same molecule, the “Liver Microsome Stability (Multiple Species): Mouse - % Remaining after 30 min w/ NADPH (%)” value in data set [9] is 45%.

On to `Cc1cnc(F)c(C)c1Cn1cc(OC(F)F)cc1C(=O)Nc1nc(/C=C/c2ncn(C3CC3)c2Cl)cs1` [Compound A26, (E)-N-(4-(2-(5-chloro-1-cyclopropyl-1H-imidazol-4-yl)vinyl)thiazol-2-yl)-4-(difluoromethoxy)-1-((2-fluoro-3,5-dimethylpyridin-4-yl)methyl)-1H-pyrrole-2-carboxamide], for which the IC50 is 0.877 µM in data set [1], > 25 µM in [2], > 25 µM in data set [5] and > 25 µM in the data set with CD47(ss + 10)Gluc. Moreover, the “24 hr Dox Inducible IL2FLGluc 293FRT/TO: IL2/PD1” value in data set [2] is reported as >22. In addition, the 50% effective concentration (EC50) in data set [3] and in [6] was > 25 µM throughout. In addition, the “Liver Microsome Stability (Multiple Species): Rat - % Remaining after 30 min w/ NADPH (%)” value in [4] came to 40%. Also, the “24hr Dox Inducible IL6R(ss + 10)Gluc 293FRT/TO: IL6R/PD1” value in data set [5] came to 28. Moreover, in data set [7], the “Liver Microsome Stability (Multiple Species): Monkey - % Remaining after 30 min w/ NADPH (%)” value is 16%. For the same molecule, in [8], the “Liver Microsome Stability (Multiple Species): Human - % Remaining after 30 min w/ NADPH (%)” value stood at 29%. In data set [9], the “Liver Microsome Stability (Multiple Species): Mouse - % Remaining after 30 min w/ NADPH (%)” value amounted to 70%.

As to `Cc1c(Cn2cc(OC(F)F)cc2C(=O)Nc2nc(/C=C/c3ncn(C4CC4)c3Cl)cs2)ccnc1F` [Compound A23, (E)-N-(4-(2-(5-chloro-1-cyclopropyl-1H-imidazol-4-yl)vinyl)thiazol-2-yl)-4-(difluoromethoxy)-1-((2-fluoro-3-methylpyridin-4-yl)methyl)-1H-pyrrole-2-carboxamide], the IC50 in [1] is 0.037 µM; in data set [2], > 25 µM; in data set [5], > 25 µM; in the data set with CD47(ss + 10)Gluc, > 25 µM. Besides, in data set [2], the “24 hr Dox Inducible IL2FLGluc 293FRT/TO: IL2/PD1” value is >540. The EC50 in data set [3] and in data set [6] was > 25 µM throughout. For the same molecule, the “Liver Microsome Stability (Multiple Species): Rat - % Remaining after 30 min w/ NADPH (%)” value in [4] is given as 31%. Also, the “24hr Dox Inducible IL6R(ss + 10)Gluc 293FRT/TO: IL6R/PD1” value in [5] is >680. In data set [7], the “Liver Microsome Stability (Multiple Species): Monkey - % Remaining after 30 min w/ NADPH (%)” value worked out at 8%. In addition, the “Liver Microsome Stability (Multiple Species): Human - % Remaining after 30 min w/ NADPH (%)” value in data set [8] is 20%. Further, in data set [9], the “Liver Microsome Stability (Multiple Species): Mouse - % Remaining after 30 min w/ NADPH (%)” value came out at 55%.
